Tested on: men and women with overactive bladder
Assay: Phase 3 study of vibegron 75 mg vs placebo and tolterodine ER 4 mg, 12 weeks, efficacy (voiding and urine volume diary)
Type: in vivo, human
Conditions: for First 50% Reduction in Urgency Episodes, Events / First 100% Reduction in UUI Episodes, Events: events of Events/Censored
Protocol: Enrollment of patients included individuals with OAB Wet (those with UUI, the involuntary loss of urine accompanied by urgency) and OAB Dry (those without UUI). A total of 1,518 patients were randomized across 215 study sites into one of three groups for a 12-week treatment period.
The study consisted of a Screening Period (1 to 5 weeks), a single-blind Run-in Period (2 weeks), a randomized double-blind Treatment Period (12 weeks), and a Follow-up Period (4 weeks).
Tolterodine ER 4 mg was the active control. […] Between the Baseline and Week 12 Visits, patients had study assessments at Week 4 and Week 8.
The Patient Voiding Diary was used by participants (via the eDiary or paper Diary) to record the frequency of daily OAB symptoms including all micturitions, urgency, incontinence, and main reason for incontinence by selecting the respective box for each symptom occurring during the course of a given day and night.
Urine volume data were collected separately by patients using the Urine Volume component of the eDiary, or the paper Urine Volume Chart. The Urine Volume Chart is a tool used in clinical practice and clinical investigation to assess voiding functions over a 24-hour period and is regarded as a useful instrument in the investigation of patients with voiding symptoms. Urine volume may be collected during any one (1) of the 7 Diary Days prior to the visit, and it should be recorded for ˜24 hours starting from the time the patient gets up for the day and continues until the time the patient gets up for the day on the next day.
For the purpose of this study, the number of micturitions was defined as the number of times a patient has voided in the toilet as indicated on the Patient Voiding Diary. Average daily micturitions were calculated using the daily entries in the Patient Voiding Diary, which was completed over the 7 days prior to each study visit. Average daily number of micturitions were calculated as the total number of micturitions that occurred on a Complete Diary Day divided by the number of Complete Diary Days in the Patient Voiding Diary. A complete diary day required confirmation by the patient in the Patient Voiding Diary that all voids and leakages had been recorded for the diary day. Baseline was defined as the average number of micturitions occurring during the last evaluable diary prior to the Baseline Visit.
The number of UUI episodes was defined as the number of times a patient had checked “urge” as the reason for accidental urine leakage. Average daily UUI episodes at each study visit were calculated in the same manner as described above for the micturition endpoint. The UUI endpoint were analyzed using only OAB Wet patients.
For the analysis of the co-primary endpoints (change from baseline in average number of daily micturitions at Week 12 and change from baseline in average number of daily urge urinary incontinence episodes at Week 12, and placebo adjustment of each), a mixed model for repeated measure (MMRM) with restricted maximum likelihood estimation was used. This model corrects for dropout and accounts for the fact that measurements taken on the same patient over time tend to be correlated by using all available information on patients within the same covariate set to derive an estimate of the treatment effect for a dropout-free population. The analysis model for each efficacy endpoint includes terms for treatment, visit, OAB Type (Wet vs Dry), Sex (Female vs Male), Region (US vs Rest of World), baseline score, and interaction of visit by treatment.
Primary inferences were drawn from treatment differences for the changes from baseline derived from the MMRM models at Week 12. As part of secondary objectives, the treatment differences for each post baseline visit were also derived using the same MMRM model. […]

[1] = Week 12, Age ≥ 75 years (posthoc analysis)
[2] = Week 12, No Prior ACH Use in last 12 Mo.
[3] = Week 12, No Prior B3 Agonist Use in last 12 Mo.
[4] = Week 12, Prior ACH Use in last 12 Mo.
[5] = Week 12, Prior B3 Agonist Use in last 12 Mo.

SMILES: O=C(Nc1ccc(C[C@@H]2CC[C@H]([C@H](O)c3ccccc3)N2)cc1)[C@@H]1CCc2nccc(=O)n21 [Vibegron, (6S)-N-[4-[[(2S,5R)−5-[(R)-hydroxy(phenyl)methyl]pyrrolidin−2-yl]methyl]phenyl]−4-oxo−7,8-dihydro−6H-pyrrolo[1,2-a]pyrimidine−6-carboxamide]
- Change from baseline in average volume voided per micturition, LS Mean (SE) (Week 8): 21.4 (3.20) mL
- Estimated Incidence of Subjects with 50% Decrease from Baseline (urgency episodes) (Week 8): 31.8
- Estimated Incidence of Subjects with 100% Decrease from Baseline (UUI episodes) (Week 8): 21.4
- Total Incontinence, Active - Placebo LS Mean Difference (SE) (Week 8): −0.7 (0.15)
- Urgency episodes, Active - Placebo LS Mean Difference (Week 8): −0.8
- First 50% Reduction in Urgency Episodes, Events (Week 8): 166/360
- First 100% Reduction in UUI Episodes, Events (Week 8): 86/317
- Average Daily Number of Total Incontinence, Mean (SD) (Week 12): 1.89 (3.120)
- Average daily number of urgency episodes, Mean (SD) (Week 12): 5.29 (4.500)
- Average volume voided per micturition, Active - Placebo LS Mean Difference (Week 12): 21.2 mL
- Average volume voided per micturition, Week 12 Mean (SD) (Week 12): 175.3 (81.78) mL
- Change from Baseline in Average Daily Number of Total Incontinence, LS Mean (SE) (Week 12): −2.3 (0.15)
- Change from baseline in average daily number of urgency episodes, LS Mean (Week 12): −2.7
- Change from baseline in average volume voided per micturition, LS Mean (SE) (Week 12): 23.5 (3.26) mL
- Estimated Incidence of Subjects with 50% Decrease from Baseline (urgency episodes) (Week 12): 43.8
- Estimated Incidence of Subjects with 100% Decrease from Baseline (UUI episodes) (Week 12): 30.0
- Total Incontinence, Active - Placebo LS Mean Difference (SE) (Week 12): −0.7 (0.16)
- Urgency episodes, Active - Placebo LS Mean Difference (Week 12): −0.7
- Micturitions: Week 12 CFB Mean (descriptive statistics) (Week 12, <65 yrs): −1.99
- UUI: Week 12 CFB Mean (descriptive statistics) (Week 12, African American): −1.61
- UUI: Week 12 CFB Median (Week 12, African American): −1.26
- Micturitions: Week 12 CFB LS Mean (95% CI) (Week 12, Age < 65 years): −1.7
- UUI: Week 12 CFB LS Mean (95% CI) (Week 12, Age < 65 years): −2.0
- UUI: Week 12 CFB Mean (descriptive statistics) (Week 12, Age < 65 years): −2.08
- Micturitions: Week 12 CFB LS Mean (95% CI) (Week 12, Age ≥ 65 years): −1.9
- UUI: Week 12 CFB LS Mean (95% CI) (Week 12, Age ≥ 65 years): −2.0
- UUI: Week 12 CFB Mean (descriptive statistics) (Week 12, Age ≥ 65 years): −1.94
- Micturitions: Week 12 CFB LS Mean (95% CI) [1]: −2.1
- UUI: Week 12 CFB LS Mean (95% CI) [1]: −2.0
- UUI: Week 12 CFB Mean (descriptive statistics) (Week 12, Asian): −0.07
- UUI: Week 12 CFB Median (Week 12, Asian): 0.00
- Micturitions: Week 12 CFB LS Mean (95% CI) (Week 12, Females): −1.9
- Micturitions: Week 12 CFB Mean (descriptive statistics) (Week 12, Females): −2.05
- UUI: Week 12 CFB LS Mean (95% CI) (Week 12, Females): −2.1
- UUI: Week 12 CFB Mean (descriptive statistics) (Week 12, Females): −2.10
- Micturitions: Week 12 CFB LS Mean (95% CI) (Week 12, Males): −1.7
- Micturitions: Week 12 CFB Mean (descriptive statistics) (Week 12, Males): −1.97
- UUI: Week 12 CFB LS Mean (95% CI) (Week 12, Males): −1.6
- UUI: Week 12 CFB Mean (descriptive statistics) (Week 12, Males): −1.35
- Micturitions: Week 12 CFB Mean (descriptive statistics) (Week 12, Males with BPH): −1.50
- UUI: Week 12 CFB Mean (descriptive statistics) (Week 12, Males with BPH): −1.09
- Micturitions: Week 12 CFB Mean (descriptive statistics) (Week 12, Males without BPH): −2.26
- UUI: Week 12 CFB Mean (descriptive statistics) (Week 12, Males without BPH): −1.51
- Micturitions: Week 12 CFB Mean (descriptive statistics) [2]: −2.05
- UUI: Week 12 CFB Mean (descriptive statistics) [2]: −2.12
- Micturitions: Week 12 CFB Mean (descriptive statistics) [3]: −2.01
- UUI: Week 12 CFB Mean (descriptive statistics) [3]: −2.03
- Micturitions: Week 12 CFB LS Mean (95% CI) (Week 12, Non-White): −1.7
- Micturitions: Week 12 CFB Mean (descriptive statistics) (Week 12, Non-White): −2.18
- UUI: Week 12 CFB LS Mean (95% CI) (Week 12, Non-White): −1.3
- UUI: Week 12 CFB Mean (descriptive statistics) (Week 12, Non-White): −1.14
- UUI: Week 12 CFB Median (Week 12, Non-White): −1.00
- Micturitions: Week 12 CFB LS Mean (95% CI) (Week 12, Overall): −1.8
- Micturitions: Week 12 CFB Mean (descriptive statistics) (Week 12, Overall): −2.04
- UUI: Week 12 CFB LS Mean (95% CI) (Week 12, Overall): −2.0
- UUI: Week 12 CFB Mean (descriptive statistics) (Week 12, Overall): −2.01
- Micturitions: Week 12 CFB Mean (descriptive statistics) [4]: −1.97
- UUI: Week 12 CFB Mean (descriptive statistics) [4]: −1.46
- Micturitions: Week 12 CFB Mean (descriptive statistics) [5]: −2.83
- UUI: Week 12 CFB Mean (descriptive statistics) [5]: −1.64
- Micturitions: Week 12 CFB LS Mean (95% CI) (Week 12, Region: Non-US): −1.8
- Micturitions: Week 12 CFB Mean (descriptive statistics) (Week 12, Region: Non-US): −2.26
- UUI: Week 12 CFB LS Mean (95% CI) (Week 12, Region: Non-US): −2.4
- UUI: Week 12 CFB Mean (descriptive statistics) (Week 12, Region: Non-US): −2.60
- Micturitions: Week 12 CFB LS Mean (95% CI) (Week 12, Region: US): −1.9
- Micturitions: Week 12 CFB Mean (descriptive statistics) (Week 12, Region: US): −2.01
- UUI: Week 12 CFB LS Mean (95% CI) (Week 12, Region: US): −1.9
- UUI: Week 12 CFB Mean (descriptive statistics) (Week 12, Region: US): −1.92
- Micturitions: Week 12 CFB LS Mean (95% CI) (Week 12, White): −1.8
- Micturitions: Week 12 CFB Mean (descriptive statistics) (Week 12, White): −2.01
- UUI: Week 12 CFB LS Mean (95% CI) (Week 12, White): −2.2
- UUI: Week 12 CFB Mean (descriptive statistics) (Week 12, White): −2.23
- UUI: Week 12 CFB Median (Week 12, White): −1.78
- Micturitions, Week 12 LS Mean Change from Baseline (Placebo-Adjusted) (Week 12, co-primary endpoint): −0.5
- UUI Episodes, Week 12 LS Mean Change from Baseline (Placebo-Adjusted) (Week 12, co-primary endpoint): −0.6
- First 50% Reduction in Urgency Episodes, Events (Week 12): 225/301
- First 100% Reduction in UUI Episodes, Events (Week 12): 119/284
- Total Incontinence Episodes, Week 12 LS Mean Change from Baseline (Placebo-Adjusted) (Week 12, secondary endpoint): −0.7
- Urgency Episodes, Week 12 LS Mean Change from Baseline (Placebo-Adjusted) (Week 12, secondary endpoint): −0.7
- Micturitions, change at Week 12, mean (SD) (Week 12, subpopulation Age ≥65 years): −2.10 (2.83)
